These results are taken from ChEMBL document CHEMBL1201862, “PubChem BioAssay data set” (2004).

The EC50 is the concentration that produces a half-maximal response. As a reminder, the IC50 is the midpoint of a concentration-inhibition curve. Broadly, the CC50 is the concentration that lowers cell viability or growth by half. Broadly, the AC50 is the concentration at which the activity in the assay is half-maximal.

The target in data set [1] is Voltage-dependent T-type calcium channel subunit alpha-1H (Homo sapiens, UniProt O95180). In kind it is functional.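 Further: channel activity triggered by adding a high calcium stimulation buffer.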
Data set [2] can be described thus: cells. In kind it is functional, cell-based.
A short description of data set [3]: cells.
Data set [4] can be described thus: HEp-2 cell cytotoxicity, dose response, cytotoxicity control for RSV inhibitor project, HTS (AID 2410). In kind it is functional. Conditions: human respiratory syncytial virus.
For data set [5], the system named is Vero. The data set is described as follows: cells. In kind it is functional, cell-based. Conditions: Chlorocebus sabaeus.
Data set [6] concerns the target T1, DNA dC->dU-editing enzyme APOBEC-3G (Homo sapiens, UniProt Q9HC16). Description: Dose Response confirmation of small molecule APOBEC3G DNA Deaminase Inhibitors via a fluorescence-based single-stranded DNA deaminase assay. [Related pubchem assays (depositor defined):AID493012, AID493028]. In kind it is functional.
The next data set concerns the target Cytochrome P450 2C9 (Homo sapiens, UniProt P11712).
The test system of data set [7] is HEK293. The data set is described as follows: cells. The note with it: Homo sapiens. In kind it is functional, cell-based.
Data set [8] deals with HEK293. The data set is described as follows: NOD2 signaling inhibitors in MDP-stimulated cells, cell-based, uHTS, luminescence (AID 2001). The note with it: Homo sapiens. In kind it is functional.
In data set [9] the test system is HEK293. Description: cells. In kind it is functional, cell-based. The note with it: Homo sapiens. This is another data set of the same source.
The target in data set [10] is Nucleotide-binding oligomerization domain-containing protein 2 (Homo sapiens, UniProt Q9HC29). Description: NOD2 signaling inhibitors, cell-based, luminescence, uHTS, HEK293 (AID 1566). In kind it is functional.
Data set [11] has as its system HEK293. Description: cells. In kind it is functional, cell-based. Conditions: Homo sapiens. The source holds these as a separate data set.
Data set [12] deals with HEK293. The data set is described as follows: NOD1 signaling inhibitors, primary screen, cell-based, luminescence, uHTS (AID 1578). Conditions: Homo sapiens. In kind it is functional.
A further data set addresses Cytochrome P450 3A4 (Homo sapiens, UniProt P08684).
In the next data set the target is T2, CAAX prenyl protease 2 (Saccharomyces cerevisiae S288c, UniProt Q03530).
T2 sequence (Q03530 whole entry): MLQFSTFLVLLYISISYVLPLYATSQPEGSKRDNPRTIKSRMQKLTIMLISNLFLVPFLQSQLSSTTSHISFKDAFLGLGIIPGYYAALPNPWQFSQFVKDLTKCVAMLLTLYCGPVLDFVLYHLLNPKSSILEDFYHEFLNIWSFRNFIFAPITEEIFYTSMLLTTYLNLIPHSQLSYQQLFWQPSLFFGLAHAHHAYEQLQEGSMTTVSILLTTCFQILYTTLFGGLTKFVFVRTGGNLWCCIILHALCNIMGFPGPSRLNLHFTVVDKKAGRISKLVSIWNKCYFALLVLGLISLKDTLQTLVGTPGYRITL
In kind it is biochemical.

In data set [13] the target is T1, DNA dC->dU-editing enzyme APOBEC-3G. In kind it is functional.
The target in data set [14] is DNA dC->dU-editing enzyme APOBEC-3A (Homo sapiens, UniProt P31941). The data set is described as follows: Dose Response confirmation of small molecule APOBEC3A DNA Deaminase Inhibitors via a fluorescence-based single-stranded DNA deaminase assay. [Related pubchem assays (depositor defined):AID493011, AID493024]. In kind it is functional.
Data set [15] in a line: inhibitors of intracellular T. cruzi replication, confirmation, NIH3T3 host cells, beta-gal luminescence (AID 2044).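 Further: intracellular parasites grown in NIH/3T3 mouse fibroblasts as host cells; luminescent beta-galactosidase reporter signal from transgenic T. cruzi replicating inside host cells; inhibitors lower the luminescence signal.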 In kind it is functional, cell-based.
Data set [16] deals with Vero. The data set is described as follows: cells. In kind it is functional. Conditions: Chlorocebus sabaeus.
Data set [17] can be described thus: cytotoxicity toward NIH3T3 fibroblasts, dose response, counter-screen, cell-based, ATP luminescence, mouse fibroblasts (AID 2010).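 Further: cells exposed to compound for about 90 hours before reading.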 In kind it is functional. A general note: The purpose of a counterscreen is to sort out artefacts and off-target activity.
Another data set has as its target Cytochrome P450 2C19 (Homo sapiens, UniProt P33261). The data set is described as follows: Cytochrome panel assay with activity outcomes. Panel member name: p450-cyp2c19 Compounds with AC50 equal or less than 10 uM are considered active. The note with it: read-out: AC50. In kind it is functional.
Data set [18] concerns the target T3, Acyl-homoserine lactone acylase PvdQ (Pseudomonas aeruginosa (strain LESB58), UniProt Q9I194).
T3 sequence (Q9I194 whole entry): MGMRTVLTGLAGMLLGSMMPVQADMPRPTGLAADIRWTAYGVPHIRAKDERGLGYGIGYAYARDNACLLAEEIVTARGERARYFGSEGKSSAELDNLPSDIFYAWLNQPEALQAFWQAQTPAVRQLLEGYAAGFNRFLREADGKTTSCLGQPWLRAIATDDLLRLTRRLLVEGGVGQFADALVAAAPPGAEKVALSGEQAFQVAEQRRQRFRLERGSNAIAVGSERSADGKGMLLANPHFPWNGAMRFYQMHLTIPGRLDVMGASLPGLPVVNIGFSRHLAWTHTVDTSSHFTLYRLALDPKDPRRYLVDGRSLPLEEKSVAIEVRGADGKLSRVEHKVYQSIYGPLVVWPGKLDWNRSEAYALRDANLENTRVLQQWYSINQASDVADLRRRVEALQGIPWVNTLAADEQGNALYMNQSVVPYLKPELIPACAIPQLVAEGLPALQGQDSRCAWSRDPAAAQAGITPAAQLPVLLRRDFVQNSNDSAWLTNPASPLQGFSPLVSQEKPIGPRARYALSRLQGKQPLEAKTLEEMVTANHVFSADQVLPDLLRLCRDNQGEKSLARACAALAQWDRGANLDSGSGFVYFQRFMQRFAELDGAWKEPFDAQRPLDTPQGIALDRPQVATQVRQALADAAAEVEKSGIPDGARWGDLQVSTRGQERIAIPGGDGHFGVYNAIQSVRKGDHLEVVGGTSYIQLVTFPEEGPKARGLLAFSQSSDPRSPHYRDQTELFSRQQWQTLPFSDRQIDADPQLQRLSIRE
Description: P. aeruginosa PvdQ acylase inhibitors, dose response, biochemical, fluorescence, plate reader and imaging, cherry-picks (AID 493231).

A short description of data set [19]: Vero E6 cell cytotoxicity, dose response, cytotoxicity control for non-replicating M. tuberculosis project, secondary assay (AID 492998). In kind it is functional, VeroE6. Conditions: Vero C1008.
Data set [20] deals with T4, Microphthalmia-associated transcription factor (Homo sapiens, UniProt O75030).
T4 sequence (O75030 whole entry): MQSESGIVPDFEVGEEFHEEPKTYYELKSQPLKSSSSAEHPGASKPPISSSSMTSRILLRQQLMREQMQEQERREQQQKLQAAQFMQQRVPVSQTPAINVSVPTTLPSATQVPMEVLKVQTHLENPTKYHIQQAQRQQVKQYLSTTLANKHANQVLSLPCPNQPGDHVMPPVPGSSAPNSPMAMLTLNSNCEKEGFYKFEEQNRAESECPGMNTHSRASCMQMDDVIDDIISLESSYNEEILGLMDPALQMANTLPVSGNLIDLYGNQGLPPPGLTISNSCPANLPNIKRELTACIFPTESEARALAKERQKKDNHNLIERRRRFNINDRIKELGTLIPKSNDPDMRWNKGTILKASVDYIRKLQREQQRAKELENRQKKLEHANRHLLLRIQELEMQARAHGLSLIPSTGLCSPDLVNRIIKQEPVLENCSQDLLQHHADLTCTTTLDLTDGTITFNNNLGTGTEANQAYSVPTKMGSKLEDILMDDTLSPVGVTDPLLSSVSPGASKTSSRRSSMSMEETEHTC
Description: TRPM1 promoter luciferase signal decrease, dose response, MITF inhibitor project, cell-based, SK-MEL-5, cherry-picked, set 3 (AID 493073).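 Further: SK-MEL-5 melanoma cells with luciferase driven by the MITF target TRPM1 promoter.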 In kind it is functional.

The nature of data set [21]: THP-1 cell cytotoxicity, dose response, cytotoxicity control for non-replicating M. tuberculosis project (AID 489025). In kind it is functional.
The nature of data set [22]: cells. In kind it is functional.
The target of a further data set is Beta-galactosidase (Escherichia coli, UniProt Q8VNN2). The data set is described as follows: beta-galactosidase enzyme inhibitors and activators, dose response, artefact control for CCR6 antagonist project, biochemical, E. coli enzyme, set 3 (AID 504712). In kind it is functional.

Active and inactive are the calls of the source.

Sequence of Cytochrome P450 2C9 (P11712 whole entry): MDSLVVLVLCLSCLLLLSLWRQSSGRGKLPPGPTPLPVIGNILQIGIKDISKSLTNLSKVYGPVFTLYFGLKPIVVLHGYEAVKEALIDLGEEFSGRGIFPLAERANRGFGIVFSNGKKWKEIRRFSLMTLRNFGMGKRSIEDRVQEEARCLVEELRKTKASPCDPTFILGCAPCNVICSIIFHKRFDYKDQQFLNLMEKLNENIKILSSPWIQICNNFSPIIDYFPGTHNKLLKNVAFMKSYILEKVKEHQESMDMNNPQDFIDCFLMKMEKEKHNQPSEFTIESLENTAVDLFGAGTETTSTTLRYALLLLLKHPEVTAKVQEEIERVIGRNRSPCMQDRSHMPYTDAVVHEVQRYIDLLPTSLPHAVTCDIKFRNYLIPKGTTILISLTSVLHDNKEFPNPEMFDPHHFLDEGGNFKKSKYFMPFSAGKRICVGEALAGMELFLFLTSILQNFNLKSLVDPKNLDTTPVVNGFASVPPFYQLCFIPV
Sequence of Voltage-dependent T-type calcium channel subunit alpha-1H (O95180 whole entry): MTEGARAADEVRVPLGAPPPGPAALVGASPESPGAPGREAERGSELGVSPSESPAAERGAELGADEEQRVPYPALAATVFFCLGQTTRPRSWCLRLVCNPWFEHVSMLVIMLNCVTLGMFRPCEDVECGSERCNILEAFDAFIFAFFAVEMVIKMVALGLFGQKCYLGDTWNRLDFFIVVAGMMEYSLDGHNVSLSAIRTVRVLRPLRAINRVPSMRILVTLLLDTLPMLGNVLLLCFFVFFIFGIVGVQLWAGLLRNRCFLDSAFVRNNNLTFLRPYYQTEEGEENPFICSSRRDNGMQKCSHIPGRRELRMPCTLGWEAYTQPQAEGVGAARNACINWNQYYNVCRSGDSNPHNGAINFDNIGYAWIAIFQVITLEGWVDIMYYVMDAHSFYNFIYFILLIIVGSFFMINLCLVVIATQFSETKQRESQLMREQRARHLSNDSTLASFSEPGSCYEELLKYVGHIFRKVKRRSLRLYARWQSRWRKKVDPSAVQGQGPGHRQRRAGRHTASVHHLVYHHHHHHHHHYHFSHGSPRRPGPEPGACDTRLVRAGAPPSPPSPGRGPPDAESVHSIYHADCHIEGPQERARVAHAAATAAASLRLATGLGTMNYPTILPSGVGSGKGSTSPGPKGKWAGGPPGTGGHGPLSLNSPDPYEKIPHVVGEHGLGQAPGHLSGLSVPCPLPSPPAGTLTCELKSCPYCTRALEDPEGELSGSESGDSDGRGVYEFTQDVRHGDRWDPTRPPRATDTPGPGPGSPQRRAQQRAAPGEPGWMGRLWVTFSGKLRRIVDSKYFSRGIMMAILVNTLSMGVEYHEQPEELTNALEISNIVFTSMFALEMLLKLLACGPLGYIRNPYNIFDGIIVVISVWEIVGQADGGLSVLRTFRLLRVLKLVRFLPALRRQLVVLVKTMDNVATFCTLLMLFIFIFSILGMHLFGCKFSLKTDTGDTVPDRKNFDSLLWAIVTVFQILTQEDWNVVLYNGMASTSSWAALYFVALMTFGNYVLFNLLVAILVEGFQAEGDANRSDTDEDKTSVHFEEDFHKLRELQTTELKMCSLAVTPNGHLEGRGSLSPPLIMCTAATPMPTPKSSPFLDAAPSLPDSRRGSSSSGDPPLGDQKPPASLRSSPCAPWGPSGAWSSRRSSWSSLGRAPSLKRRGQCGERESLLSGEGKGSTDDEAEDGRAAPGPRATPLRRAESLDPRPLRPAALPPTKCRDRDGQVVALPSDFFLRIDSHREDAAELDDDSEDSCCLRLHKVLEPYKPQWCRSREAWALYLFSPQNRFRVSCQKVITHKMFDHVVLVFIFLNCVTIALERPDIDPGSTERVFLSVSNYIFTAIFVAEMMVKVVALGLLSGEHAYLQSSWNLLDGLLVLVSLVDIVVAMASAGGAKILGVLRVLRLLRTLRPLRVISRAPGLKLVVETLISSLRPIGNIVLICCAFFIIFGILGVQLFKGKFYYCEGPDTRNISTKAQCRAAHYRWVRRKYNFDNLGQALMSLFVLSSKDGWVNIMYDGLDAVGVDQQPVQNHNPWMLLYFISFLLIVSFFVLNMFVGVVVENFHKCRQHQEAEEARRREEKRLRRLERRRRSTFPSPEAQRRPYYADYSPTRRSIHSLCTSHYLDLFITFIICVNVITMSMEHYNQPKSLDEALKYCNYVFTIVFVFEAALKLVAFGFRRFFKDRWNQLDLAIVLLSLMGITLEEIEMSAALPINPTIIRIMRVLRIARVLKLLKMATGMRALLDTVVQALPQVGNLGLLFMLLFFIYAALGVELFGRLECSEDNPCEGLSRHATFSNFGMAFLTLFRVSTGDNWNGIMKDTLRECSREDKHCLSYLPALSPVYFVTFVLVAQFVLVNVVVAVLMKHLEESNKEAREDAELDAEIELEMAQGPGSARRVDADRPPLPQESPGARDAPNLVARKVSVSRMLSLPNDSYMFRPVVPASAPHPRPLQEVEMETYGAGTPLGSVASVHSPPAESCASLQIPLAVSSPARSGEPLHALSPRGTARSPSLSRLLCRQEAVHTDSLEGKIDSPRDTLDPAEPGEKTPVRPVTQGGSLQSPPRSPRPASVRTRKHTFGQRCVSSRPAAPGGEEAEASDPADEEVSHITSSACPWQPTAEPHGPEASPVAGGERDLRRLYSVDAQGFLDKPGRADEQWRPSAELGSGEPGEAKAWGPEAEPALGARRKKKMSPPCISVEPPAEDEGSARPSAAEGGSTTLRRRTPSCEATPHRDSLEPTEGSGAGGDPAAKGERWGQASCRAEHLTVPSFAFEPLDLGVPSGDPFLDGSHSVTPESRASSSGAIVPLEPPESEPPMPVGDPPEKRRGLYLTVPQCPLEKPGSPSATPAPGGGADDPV
Sequence of DNA dC->dU-editing enzyme APOBEC-3A (P31941 whole entry): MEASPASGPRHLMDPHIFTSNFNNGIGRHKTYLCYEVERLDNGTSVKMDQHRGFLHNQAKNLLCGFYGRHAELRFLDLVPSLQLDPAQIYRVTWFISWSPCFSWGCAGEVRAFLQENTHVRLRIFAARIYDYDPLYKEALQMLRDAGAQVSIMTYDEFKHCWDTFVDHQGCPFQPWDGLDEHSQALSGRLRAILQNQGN
T1 sequence (Q9HC16 whole entry): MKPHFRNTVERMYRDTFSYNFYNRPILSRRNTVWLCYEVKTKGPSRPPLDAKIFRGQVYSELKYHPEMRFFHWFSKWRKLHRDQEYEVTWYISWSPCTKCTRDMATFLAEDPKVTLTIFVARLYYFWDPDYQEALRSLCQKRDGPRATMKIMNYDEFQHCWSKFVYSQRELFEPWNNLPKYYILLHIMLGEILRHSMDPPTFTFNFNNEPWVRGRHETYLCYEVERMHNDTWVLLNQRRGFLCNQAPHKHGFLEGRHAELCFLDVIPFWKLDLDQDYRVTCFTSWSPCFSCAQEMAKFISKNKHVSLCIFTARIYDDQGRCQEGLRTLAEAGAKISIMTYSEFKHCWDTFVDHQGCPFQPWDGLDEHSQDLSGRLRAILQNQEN
Sequence of Cytochrome P450 3A4 (P08684 whole entry): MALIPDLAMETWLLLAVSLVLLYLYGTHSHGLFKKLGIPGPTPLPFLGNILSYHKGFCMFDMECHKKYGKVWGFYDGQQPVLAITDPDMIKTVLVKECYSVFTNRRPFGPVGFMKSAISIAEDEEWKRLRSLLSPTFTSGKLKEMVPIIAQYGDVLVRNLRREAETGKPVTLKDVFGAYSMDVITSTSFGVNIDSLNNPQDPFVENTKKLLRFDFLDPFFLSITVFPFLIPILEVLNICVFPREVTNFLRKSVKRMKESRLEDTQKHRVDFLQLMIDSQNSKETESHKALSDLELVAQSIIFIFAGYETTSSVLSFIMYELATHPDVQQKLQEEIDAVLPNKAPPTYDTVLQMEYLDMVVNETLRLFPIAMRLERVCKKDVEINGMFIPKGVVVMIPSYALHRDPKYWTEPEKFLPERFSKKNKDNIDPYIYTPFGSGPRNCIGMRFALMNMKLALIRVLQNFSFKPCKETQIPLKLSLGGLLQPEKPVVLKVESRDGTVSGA
Sequence of Nucleotide-binding oligomerization domain-containing protein 2 (Q9HC29 whole entry, the tested form may be a part): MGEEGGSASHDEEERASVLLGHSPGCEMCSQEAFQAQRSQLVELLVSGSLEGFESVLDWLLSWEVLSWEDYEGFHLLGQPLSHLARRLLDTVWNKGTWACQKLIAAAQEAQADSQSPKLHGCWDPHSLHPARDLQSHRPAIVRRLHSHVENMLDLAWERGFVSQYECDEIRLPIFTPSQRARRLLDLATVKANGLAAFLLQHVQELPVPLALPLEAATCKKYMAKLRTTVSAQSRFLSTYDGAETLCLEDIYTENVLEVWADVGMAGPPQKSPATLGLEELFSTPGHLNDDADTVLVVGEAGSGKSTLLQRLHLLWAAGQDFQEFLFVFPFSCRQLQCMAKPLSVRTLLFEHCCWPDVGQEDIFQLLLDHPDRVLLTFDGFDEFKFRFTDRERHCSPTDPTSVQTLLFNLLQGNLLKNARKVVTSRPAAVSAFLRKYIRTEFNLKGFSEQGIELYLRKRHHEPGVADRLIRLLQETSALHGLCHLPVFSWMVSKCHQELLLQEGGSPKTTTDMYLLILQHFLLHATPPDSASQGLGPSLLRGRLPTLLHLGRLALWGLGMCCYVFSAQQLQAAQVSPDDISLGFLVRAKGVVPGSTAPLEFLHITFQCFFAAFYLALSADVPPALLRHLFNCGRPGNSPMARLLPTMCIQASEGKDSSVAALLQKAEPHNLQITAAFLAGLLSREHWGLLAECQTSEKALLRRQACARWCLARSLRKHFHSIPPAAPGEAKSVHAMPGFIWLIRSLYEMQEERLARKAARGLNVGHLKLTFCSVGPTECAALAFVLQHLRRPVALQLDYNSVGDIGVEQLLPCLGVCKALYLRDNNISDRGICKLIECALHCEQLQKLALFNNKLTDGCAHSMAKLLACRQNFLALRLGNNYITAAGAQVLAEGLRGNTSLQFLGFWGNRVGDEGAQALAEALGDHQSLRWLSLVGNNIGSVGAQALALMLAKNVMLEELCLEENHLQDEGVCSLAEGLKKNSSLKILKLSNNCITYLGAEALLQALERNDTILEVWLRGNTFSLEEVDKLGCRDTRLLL

Take `O=P(Nc1ccccc1Cl)(c1ccccc1)c1nc2c(s1)CCCC2` (centres undefined): in data set [1], the EC50 is 5.95 µM (active).

Turning to `Cc1ccc2c(c1)cc(C(=O)NCc1ccccc1)n2C`, the EC50 in the data set “cells [2]” is given as > 350 µM (not active). The values for the IC50 in the data set “cells [3]” and in the data set with Vero [5] were 24 µM (active) and 17.8 µM (active), respectively. The CC50 in [4] is 44.9 µM (active).

Take `CCN(CC)C(=O)CSc1nc2c(sc(=S)n2-c2ccccc2)c(=O)n1-c1ccc(OC)cc1OC`: the IC50 in [6] was 51.9 µM (active).

In the case of `COc1ccc(N2CCN(C(=O)CN(Cc3ccc(Cl)cc3)S(C)(=O)=O)CC2)cc1`, the EC50 in [1] is 11.3 µM (active).

As for `Cc1oc(-c2cccc(Cl)c2)nc1CN1CCC(C(=O)NCc2ccco2)CC1`, the EC50 in [1] was 5.8 µM (active).

Consider `CNc1nc(-c2ccc(N(C)C)cc2)nc2ccccc12`, for which, at Cytochrome P450 2C9, the AC50 entry was “inconclusive”.

As for `Cc1c(Nc2c3ccccc3nc3ccccc23)c(=O)n(-c2ccccc2)n1C`, the IC50 in the data set with HEK293 [7], with HEK293 [8], in the data set with HEK293 [9] and in the data set with HEK293 [11] was > 20 µM (inactive) in each case. Further, the EC50 (in data set [10]; in the data set with HEK293 [12]) was > 20 µM (inactive) each time.

As for `CN1CCN(c2ncncc2-c2ccc(N(C)C)cc2)CC1`, the AC50 at Cytochrome P450 3A4 is 2 µM (inconclusive); at Cytochrome P450 2C9, “inconclusive”.

Take `COc1ccc(OC)c(Cc2nnc(CCC(=O)N3CCN(C4CCCC4)CC3)o2)c1`: the AC50 at CAAX prenyl protease 2 is 7.48 µM (active).

Turning to `C[N+]1(CCOC(=O)C2(c3ccccc3)CCCC2)CCCCC1`, the IC50 in data set [13] was 3.57 µM (active); in data set [14] it was 3.89 µM (active).

Regarding `CN1C(=O)/C(=C/c2cccc(Cl)c2)Sc2ccc(C(=O)N3CCOCC3)cc21`, on CAAX prenyl protease 2, the AC50 was 5.96 µM (active).

Consider `O=C(CCC1COc2ccccc2O1)NCC1COc2ccccc2O1` (centres undefined), for which the EC50 in data set [1] was 1.77 µM (active).

Turning to `COc1ccccc1Nc1ncnc2c1c(C)c(C)n2CCCN(C)C`, the EC50 is 0.156 µM (active) in data set [15] and 4.51 µM (active) in data set [17]. Besides, the concentration for half-maximal inhibition (IC50) in the data set with Vero [5] was 23.2 µM (active). In addition, in the data set with Vero [16], the CC50 was > 25 µM (active).

Take `COc1cc(NC(=O)C2CCN(S(=O)(=O)c3cccc4nonc34)CC2)cc(OC)c1`: the AC50 on Cytochrome P450 2C19 was 15.8 µM (inconclusive); on Cytochrome P450 2C9 it was “inconclusive”.

As to `O=C(NC1CC1)c1cc2cc3ccccc3nc2s1`, in data set [18], the AC50 is 45.7 µM (active).

Consider `CCOc1ccccc1-n1nnnc1SCC(=O)Nc1cc(C)on1`, for which the AC50 is 3.98 µM (inconclusive) at Cytochrome P450 3A4 and “inconclusive” on Cytochrome P450 2C9.

As for `Cc1ccc(-n2nnnc2CNC(=O)c2ccc([N+](=O)[O-])o2)cc1C`, the 50% cytotoxic concentration (CC50) is 12.1 µM (active) in data set [19] and 22.5 µM (active) in data set [21]. In addition, the AC50 in [20] is 9.72 µM (active). Moreover, the EC50 was 0.145 µM (active) in [15] and > 30 µM (not active) in data set [17]. Also, the IC50 in “cells [22]” was 8.5 µM (active).

As to `CCCN(CCC)CCNC(=O)C1CCN(Cc2nc(-c3ccc(Cl)cc3)oc2C)CC1`, the IC50 in the data set with Vero [5] is 10.8 µM (active). The CC50 in the data set on Vero [16] was > 25 µM (active).

In the case of `C[N+](C)(C)c1ccccc1`, the results for the 50% inhibitory concentration (IC50) in data set [13] and in data set [14] were 3.33 µM (active) and 2.16 µM (active), respectively.

With `CN1CCN(S(=O)(=O)c2ccc(C3CCCCC3)cc2)CC1`, the IC50 in data set [13] was 16.8 µM (active); in [14], 9.2 µM (active).

In the case of `O=[N+]([O-])c1ccc(NN=Cc2ccccc2O)nc1`, on Beta-galactosidase, the IC50 was 46 µM (inactive).
